We go through one compound from EP0427405A1 (priority 1989, dated 1991).

In experiment [1] the test system is Phaffia rhodozyma ENZA-A169. Type of experiment: cell-based.
In experiment [2] the test system is Phaffia rhodozyma ENZA-M10. The experiment is classed as cell-based.

For `CSC` [DMS, dimethylsulphide], in experiment [1], the “kill curve, kinetics of death” value is listed as “follows 1st order kinetics” and the “kill curve, speed of killing” value is reported as “killed much more quickly than E1”. Besides, the “kill curve, shape” value in experiment [2] is reported as “definite "bump"”.
